Reference: BindingDB's records for doi:10.1016/j.bmcl.2007.10.088 (University of Minnesota Minneapolis, 2008)
pKi: −log10 of the molar value.

Each compound was assayed against Bcl-xL (Homo sapiens) (assay: Inhibition of Bak peptide binding to human recombinant Bcl-Xl).

pKi	Structure (SMILES)
4.23	CCOC(=O)[C@H](Cc1ccccc1)N1C(=O)/C(=C/c2ccc(OCOc3ccc(/C=C4\SC(=S)N([C@@H](Cc5ccccc5)C(=O)OCC)C4=O)cc3)cc2)SC1=S
3.87	O=C(OCCOC(=O)[C@H](Cc1ccccc1)N1C(=O)/C(=C/c2ccc(Br)cc2)SC1=S)[C@H](Cc1ccccc1)N1C(=O)/C(=C/c2ccc(Br)cc2)SC1=S
6.01	O=C(O)[C@H](Cc1ccccc1)N1C(=O)/C(=C/c2ccc(OCCOc3ccc(/C=C4\SC(=S)N([C@@H](Cc5ccccc5)C(=O)O)C4=O)cc3)cc2)SC1=S
